For 1 compound, zone of inhibition and MIC results are on record in ChEMBL document CHEMBL1147222, “Lowdenic acid: a new antifungal polyketide-derived metabolite from a new fungicolous Verticillium sp” (2003).

Converted amounts (≈) assume the structure as drawn.

Assay type in all cases: functional
The subject of test [1] is Aspergillus flavus. The experiment in a line: Antifungal activity against Aspergillus flavus NRRL 6541 at 250 ug/disk. As to conditions: read-out: IZ.
Another test has as its system Bacillus subtilis. In words: Antibacterial activity against Bacillus subtilis ATCC 6051 at 200 ug/disk by standard disk assay. The note with it: read-out: IZ.
Test [2] concerns Aspergillus flavus. The experiment in a line: Antifungal activity against Aspergillus flavus NRRL 6541.
The next test deals with Candida albicans. The experiment in a line: Antifungal activity against Candida albicans ATCC 90029 at 200 ug/disk by standard disk assay. The note with it: read-out: IZ.
The test system of a further test is Staphylococcus aureus. In words: Antibacterial activity against Staphylococcus aureus ATCC 29213 at 200 ug/disk by standard disk assay. The note with it: read-out: IZ.

One may read the MIC as the smallest concentration in the dilution series that meets the test's criterion for growth inhibition. Read a high MIC as weaker potency. For the compound `CCCCCCCCCC[C@@H](C)CCC[C@@]1(C)C=C/C(=C2/C(=O)O[C@H](CC(=O)O)C2=O)O1` [LOWDENIC ACID], the zone of inhibition at 250 µg/disc with Aspergillus flavus [1] was 14 mm. Moreover, the zone of inhibition at 200 µg/disc came to 17 mm with Bacillus subtilis, 9 mm with Candida albicans and 12 mm in the test on Staphylococcus aureus. In the test on Aspergillus flavus [2], this compound yielded an MIC of 6 µg/mL (≈ 13.4 µM).
